Source: patent US11712434B2, “Compound having anti-cancer effect, and preparation method therefor and use thereof” (3D MEDICINES (BEIJING) CO., LTD., priority 2016, dated 2023)
Blank lines part the entries; values can stand above or below the compound they belong to.

Legend:
Assay in all cases: Cell proliferation assay (Alamar Blue)
Assay type in all cases: cell-based
MDA-MB-231 = MDA-MB-231 tumor cell line, 6 days culture
In short: (§1)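 Fluorescence readout (Ex 560 nm, Em 590 nm) after 1-4 h AlamarBlue incubation following 6-day compound exposure. Nine-point 3.16-fold dilution series starting at 100 or 30 μM depending on solubility, duplicate wells. Inhibition normalised to 0% and 100% inhibition controls; IC50 from dose-response fit.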

SNU398 = SNU398 liver cancer cell line, 6 days culture
In short: as §1

KM12 = KM12 tumor cell line, 6 days culture
In short: as §1

DLD1 = DLD1 tumor cell line, 6 days culture
In short: as §1

SNU475 = SNU475 liver cancer cell line, 6 days culture
In short: as §1

HCCLM3 = HCCLM3 tumor cell line, 6 days culture
In short: as §1

SNU182 = SNU182 liver cancer cell line, 6 days culture
In short: as §1

MDA-MB-435S = MDA-MB-435S tumor cell line, 6 days culture
In short: as §1

SNU423 = SNU423 liver cancer cell line, 6 days culture
In short: as §1

DU145 = DU145 tumor cell line, 6 days culture
In short: as §1

NCI-H661 = NCI-H661 tumor cell line, 6 days culture
In short: as §1

JHH4 = JHH4 liver cancer cell line, 6 days culture
In short: as §1

HuTu80 = HuTu80 tumor cell line, 6 days culture
In short: as §1

SNU354 = SNU354 liver cancer cell line, 6 days culture
In short: as §1

AN3CA = AN3CA tumor cell line, 6 days culture
In short: as §1

HT1080 = HT1080 tumor cell line, 6 days culture
In short: as §1

Hep3B2.1-7 = Hep3B2.1-7 liver cancer cell line, 6 days culture
In short: as §1

NCI-H1648 = NCI-H1648 tumor cell line, 6 days culture
In short: as §1

Li-7 = Li-7 liver cancer cell line, 6 days culture
In short: as §1

JHH5 = JHH5 liver cancer cell line, 6 days culture
In short: as §1

TE-6 = TE-6 tumor cell line, 6 days culture
In short: as §1

HLE = HLE liver cancer cell line, 6 days culture
In short: as §1

SNU449 = SNU449 liver cancer cell line, 6 days culture
In short: as §1

SNU739 = SNU739 liver cancer cell line, 6 days culture
In short: as §1

CCRF-CEM = CCRF-CEM tumor cell line, 6 days culture
In short: as §1

TE-15 = TE-15 tumor cell line, 6 days culture
In short: as §1

IC50 (MDA-MB-231; Homo sapiens, 144 h): > 100 µM
IC50 (SNU398; Homo sapiens, SNU-398, 144 h): > 100 µM
IC50 (DLD1; Homo sapiens, DLD-1, 144 h): > 100 µM
IC50 (SNU475; Homo sapiens, SNU-475, 144 h): > 100 µM
IC50 (HCCLM3; Homo sapiens, 144 h): > 100 µM
IC50 (SNU182; Homo sapiens, SNU-182, 144 h): > 100 µM
IC50 (MDA-MB-435S; Homo sapiens, 144 h): > 100 µM
IC50 (SNU423; Homo sapiens, SNU-423, 144 h): > 100 µM
IC50 (DU145; Homo sapiens, DU-145, 144 h): > 100 µM
IC50 (NCI-H661; Homo sapiens, 144 h): > 100 µM
IC50 (SNU354; Homo sapiens, SNU-354, 144 h): > 100 µM
IC50 (HT1080; Homo sapiens, HT-1080, 144 h): > 100 µM
IC50 (Hep3B2.1-7; 144 h): 80.2 µM
IC50 (NCI-H1648; Homo sapiens, 144 h): > 100 µM
IC50 (SNU449; Homo sapiens, SNU-449, 144 h): > 100 µM
IC50 (SNU739; SNU-739, 144 h): > 100 µM
IC50 (CCRF-CEM; Homo sapiens, 144 h): > 100 µM
SMILES: Cc1ccc(F)c(NC(=O)Nc2ccc(-c3cccc4[nH]nc(NC(=O)CCCCCCCCCCCNC(=O)C[C@H](N)C(=O)N[C@@H](CCC(=O)N[C@@H](CCC(=O)N[C@@H](CCC(=O)N[C@@H](CCC(=O)O)C(=O)O)C(=O)O)C(=O)O)C(=O)O)c34)cc2)c1 [Compound 8]
IC50 (KM12; Homo sapiens, 144 h): > 100 µM
IC50 (JHH4; JHH-4, 144 h): > 100 µM
IC50 (HuTu80; Homo sapiens, 144 h): 50.6 µM
IC50 (AN3CA; Homo sapiens, AN3-CA, 144 h): 5.68 µM
IC50 (Li-7; 144 h): > 100 µM
IC50 (JHH5; 144 h): > 100 µM
IC50 (TE-6; Homo sapiens, 144 h): > 100 µM
IC50 (HLE; Homo sapiens, 144 h): > 100 µM
IC50 (TE-15; Homo sapiens, 144 h): > 100 µM

SMILES: Cc1ccc(F)c(NC(=O)Nc2ccc(-c3cccc4[nH]nc(NC(=O)CCCCCCCCCCCNC(=O)C[C@H](N)C(=O)N[C@@H](CCC(=O)N[C@@H](CCC(=O)N[C@@H](CCC(=O)N[C@@H](CCC(=O)N[C@@H](CCC(=O)N[C@@H](CCC(=O)N[C@@H](CCC(=O)N[C@@H](CCC(=O)N[C@@H](CCC(=O)O)C(=O)O)C(=O)O)C(=O)O)C(=O)O)C(=O)O)C(=O)O)C(=O)O)C(=O)O)C(=O)O)c34)cc2)c1 [Compound 9]
IC50 (MDA-MB-231): > 100 µM
IC50 (SNU398): > 100 µM
IC50 (KM12): > 100 µM
IC50 (DLD1): > 100 µM
IC50 (SNU475): > 100 µM
IC50 (HCCLM3): > 100 µM
IC50 (SNU182): > 100 µM
IC50 (MDA-MB-435S): > 100 µM
IC50 (SNU423): > 100 µM
IC50 (DU145): > 100 µM
IC50 (NCI-H661): > 100 µM
IC50 (JHH4): > 100 µM
IC50 (HuTu80): 90.4 µM
IC50 (SNU354): > 100 µM
IC50 (AN3CA): 10.3 µM
IC50 (HT1080): > 100 µM
IC50 (Hep3B2.1-7): > 100 µM
IC50 (NCI-H1648): > 100 µM
IC50 (Li-7): > 100 µM
IC50 (JHH5): > 100 µM
IC50 (TE-6): > 100 µM
IC50 (HLE): > 100 µM
IC50 (SNU449): > 100 µM
IC50 (SNU739): > 100 µM
IC50 (CCRF-CEM): > 100 µM
IC50 (TE-15): > 100 µM

IC50 (MDA-MB-231; Homo sapiens, 144 h): 12.4 µM
IC50 (SNU398; Homo sapiens, SNU-398, 144 h): 4.63 µM
IC50 (DLD1; Homo sapiens, DLD-1, 144 h): 29.2 µM
IC50 (SNU475; Homo sapiens, SNU-475, 144 h): 11.2 µM
IC50 (HCCLM3; Homo sapiens, 144 h): 12 µM
IC50 (SNU182; Homo sapiens, SNU-182, 144 h): 46.2 µM
IC50 (MDA-MB-435S; Homo sapiens, 144 h): 18.6 µM
IC50 (SNU423; Homo sapiens, SNU-423, 144 h): 33.2 µM
IC50 (DU145; Homo sapiens, DU-145, 144 h): 9.34 µM
IC50 (NCI-H661; Homo sapiens, 144 h): 36.8 µM
IC50 (SNU354; Homo sapiens, SNU-354, 144 h): 8.62 µM
IC50 (HT1080; Homo sapiens, HT-1080, 144 h): 24.9 µM
IC50 (Hep3B2.1-7; 144 h): 6.32 µM
IC50 (NCI-H1648; Homo sapiens, 144 h): 21.5 µM
IC50 (SNU449; Homo sapiens, SNU-449, 144 h): 25.7 µM
IC50 (SNU739; SNU-739, 144 h): 11.3 µM
IC50 (CCRF-CEM; Homo sapiens, 144 h): 10.4 µM
SMILES: Cc1ccc(F)c(NC(=O)Nc2ccc(-c3cccc4[nH]nc(NC(=O)C[C@H](N)C(=O)N[C@@H](CCC(=O)N[C@@H](CCC(=O)N[C@@H](CCC(=O)N[C@@H](CCC(=O)O)C(=O)O)C(=O)O)C(=O)O)C(=O)O)c34)cc2)c1 [Compound 2]
IC50 (KM12; Homo sapiens, 144 h): 5.48 µM
IC50 (JHH4; JHH-4, 144 h): 36.8 µM
IC50 (HuTu80; Homo sapiens, 144 h): 4.26 µM
IC50 (AN3CA; Homo sapiens, AN3-CA, 144 h): 0.73 µM
IC50 (Li-7; 144 h): 19.5 µM
IC50 (JHH5; 144 h): 24.7 µM
IC50 (TE-6; Homo sapiens, 144 h): 27.6 µM
IC50 (HLE; Homo sapiens, 144 h): 6.47 µM
IC50 (TE-15; Homo sapiens, 144 h): 7.29 µM

IC50 (MDA-MB-231): > 100 µM
IC50 (SNU398): > 100 µM
IC50 (DLD1): > 100 µM
IC50 (SNU475): > 100 µM
IC50 (HCCLM3): > 100 µM
IC50 (SNU182): > 100 µM
IC50 (MDA-MB-435S): > 100 µM
IC50 (SNU423): > 100 µM
IC50 (DU145): > 100 µM
IC50 (NCI-H661): > 100 µM
IC50 (SNU354): > 100 µM
IC50 (HT1080): > 100 µM
IC50 (Hep3B2.1-7): > 100 µM
IC50 (NCI-H1648): > 100 µM
IC50 (SNU449): > 100 µM
IC50 (SNU739): > 100 µM
IC50 (CCRF-CEM): > 100 µM
SMILES: Cc1ccc(F)c(NC(=O)Nc2ccc(-c3cccc4[nH]nc(NC(=O)CCCCCNC(=O)C[C@H](N)C(=O)O)c34)cc2)c1 [Compound 11]
IC50 (KM12): > 100 µM
IC50 (JHH4): > 100 µM
IC50 (HuTu80): 63.1 µM
IC50 (AN3CA): 17.4 µM
IC50 (Li-7): > 100 µM
IC50 (JHH5): > 100 µM
IC50 (TE-6): > 100 µM
IC50 (HLE): > 100 µM
IC50 (TE-15): > 100 µM
